Laboratory results published in patent US20090186767A1, “Use of surfactants for mitigating damage to plants from pests” (Cleareso, LLC, priority 2008, published 2009).
“Also recorded” adds a separate entry of the source.

What was measured:
[1] = Solubility of test preparations in water (Example 1); format: physicochemical; details: concentration stated in the value
[2] = system: larvae of the root weevil, Diaprepes abbreviatus; test: Immersion of root weevil larvae in test solutions (Example 1); format: in vivo; details: for Judgement of toxicity to larvae: 0.1 to 5.0% treatments, test terminated at 24 hours; for Mortality of larvae with individual compounds and formulations: five larvae
Description: The criterion for toxicity with these larvae is the lack of nipping behavior and its consequent black residue from blood loss and the lack of spontaneous movement.
Experimental Design. Larvae and pupae were received from the Florida Dept. of Agriculture's rearing program in Gainesville, Fla. Larvae were shipped as 50-day larvae (larvae that will pupate in about 10 days). Both larvae and pupae were held at 27° C. in 12 hour cycles of light and dark in their containers as separate individuals until experimentation began.
In the testing, five larvae or pupae were removed from their rearing cups and placed in a 150 ml glass beaker. In testing the Soy Technologies Manufacturer's Base (SMTB), a 5% solution was mixed in either water or carbonated water by adding 10 ml of SMTB to a 250 ml beaker and then adding water or carbonated water to the 200 ml mark. The solutions were then immediately added to the beaker with the larvae or pupae to cover them. Controls with water or carbonated water alone were also included. There was a single tray of five larvae for each treatment at each time period and a five larvae control for each time period. Larvae were removed and placed on plastic weighing trays after 5, 10, 15, 20, 25, and 30 minutes. At the end of 30 minutes all organisms were assessed for mortality. Trays with larvae were left on the bench tip for 24 hours and then another mortality assessment was made.
Concentration Series. With the results from the time series above, larvae were held in different concentrations of STMB for 30 minutes. After 30 minutes, solutions were poured off and the trays wiped dry. Assessments were made at 24 or 48 hours with a few assessments at 72 hours dependent on effects. Treatments were: water or carbonated water as controls, and 0.1, 0.5, 1.0, 2.0, 3.0, 4.0 and 5.0% concentrations in either distilled water or carbonated water. Five larvae were used for each control and treatment. Pupae were not used in this assessment.

[3] = system: tomato root galling by M. javanica; details: in vivo; cited from earlier work
[4] = system: second stage juveniles of Meloidognye hapla; details: cited from earlier work; for Toxicity to nematodes: in vivo; for Toxicity to second stage juveniles: 24 hours at a concentration of 50 ppm
[5] = concentration 0.1 percent, 24 hours
[6] = concentration 1.0 percent, 24 hours
[7] = concentration 3.0 percent, 24 hours
[8] = concentration 5.0 percent, 24 hours
[9] = concentration 0.1 percent, 48 hours
[10] = concentration 0.1 percent, 72 hours
[11] = concentration 1.0 percent, 48 hours
[12] = concentration 1.0 percent, 72 hours
[13] = concentration 3.0 percent, 48 hours
[14] = concentration 3.0 percent, 72 hours
[15] = concentration 5.0 percent, 48 hours
[16] = concentration 5.0 percent, 72 hours

## COC(=O)CCC(=O)OC [106-65-0, butanedioic acid, dimethyl ester]
[1]; listed as Dimethyl succinate
  Solubility of the preparation: The 3% and 5% concentrations were not soluble; also recorded: the 1.0% appears to be just soluble; also recorded: The 0.1% was soluble
[2]
  Judgement of toxicity to larvae: judged to be non-toxic
[2]; [5]
  Mortality of larvae with individual compounds and formulations: 2
[2]; [6]
  Mortality of larvae with individual compounds and formulations: 2
[2]; [7]
  Mortality of larvae with individual compounds and formulations: 1
[2]; [8]
  Mortality of larvae with individual compounds and formulations: 1

## COC(=O)CCCCC(=O)OC [627-93-0, Dimethyl hexanedioate]
[1]; listed as Dimethyladipate
  Solubility of the preparation: Preparations of 1.0, 3.0, and 5.0% concentration were not completely soluble; also recorded: The 0.1% preparation was soluble
[2]
  Judgement of toxicity to larvae: judged non-toxic
[2]; [5]
  Mortality of larvae with individual compounds and formulations: 2
[2]; [6]
  Mortality of larvae with individual compounds and formulations: 1
[2]; [7]
  Mortality of larvae with individual compounds and formulations: 2
[2]; [8]
  Mortality of larvae with individual compounds and formulations: 3

## COC(=O)CCCC(=O)OC [1119-40-0, pentanedioic acid, dimethyl ester]
[2]; [9]
  Mortality of larvae with individual compounds and formulations: 3
[2]; [10]
  Mortality of larvae with individual compounds and formulations: 3
[2]; [11]
  Mortality of larvae with individual compounds and formulations: 1
[2]; [12]
  Mortality of larvae with individual compounds and formulations: 2
[2]; [13]
  Mortality of larvae with individual compounds and formulations: 0
[2]; [14]
  Mortality of larvae with individual compounds and formulations: 0
[2]; [15]
  Mortality of larvae with individual compounds and formulations: 1
[2]; [16]
  Mortality of larvae with individual compounds and formulations: 2

## CCCCCCCCC(=O)OC [Methyl perlargonate]
[3]
  Concentration producing reduced galling of plants: 0.8 microliters/liter

## CCCCCCCC/C=C\CCCCCCCC(=O)O [Oleic acid]
[4]
  Toxicity to nematodes: relatively nontoxic

## CCCCCCCCCC(=O)O [decanoic acid]
[4]
  Toxicity to second stage juveniles: killed all second stage juveniles

## CCCCCCCC/C=C\CCCCCCCC(=O)[O-].[K+] [potassium oleate]
[4]
  Toxicity to nematodes: relatively nontoxic

## CCCCCCCCCCC(=O)O [undecanoic acid]
[4]
  Toxicity to second stage juveniles: killed all second stage juveniles

## Polyoxyethylene 10 tridecylether [24938-91-8]
[2]; [5]
  Mortality of larvae with individual compounds and formulations: 0
[2]; [9]
  Mortality of larvae with individual compounds and formulations: 0
[2]; [10]
  Mortality of larvae with individual compounds and formulations: 0
[2]; [6]
  Mortality of larvae with individual compounds and formulations: 2
[2]; [11]
  Mortality of larvae with individual compounds and formulations: 2
[2]; [12]
  Mortality of larvae with individual compounds and formulations: 2
[2]; [7]
  Mortality of larvae with individual compounds and formulations: 0
[2]; [13]
  Mortality of larvae with individual compounds and formulations: 0
[2]; [14]
  Mortality of larvae with individual compounds and formulations: 0
[2]; [8]
  Mortality of larvae with individual compounds and formulations: 0
[2]; [15]
  Mortality of larvae with individual compounds and formulations: 3
[2]; [16]
  Mortality of larvae with individual compounds and formulations: 3

## glycol pelargonate
[3]
  Concentration producing reduced galling of plants: 6.4 microliters/liter
